From ChEMBL document CHEMBL1153350, “Synthesis of actin-depolymerizing compounds” (Bioorg Med Chem Lett, 2009)

Key:
[1] = Inhibition of F-actin depolymerization
[2] = Cytotoxicity against human HeLaS3 cells; assay type: functional, cell-based; settings: HeLa S3

SMILES | IC50 [1] [µM] | IC50 [2] [µg/mL]
CC(=O)O[C@@H]([C@@H](C)[C@@H](/C=C/CCc1ccccc1)OC(=O)[C@H](C)N(C)C)[C@H](C)/C=C/N(C)C=O | 47 | > 10
CC(=O)O[C@@H]([C@@H](C)[C@@H](/C=C/c1ccccc1)OC(=O)[C@H](C)N(C)C)[C@H](C)/C=C/N(C)C=O | 85 | > 10
CC(=O)O[C@@H]([C@@H](C)[C@@H](/C=C/CCCCc1ccccc1)OC(=O)[C@H](C)N(C)C)[C@H](C)/C=C/N(C)C=O | 21 | > 10

Continued, in another order:

IC50 [1] [µM] | SMILES | IC50 [2] [µg/mL]
210 | C/C=C/[C@@H](OC(=O)[C@H](C)N(C)C)[C@H](C)[C@H](OC(C)=O)[C@H](C)/C=C/N(C)C=O | > 10
7.9 | CC(=O)O[C@@H]([C@@H](C)[C@@H](CC[C@H](C)[C@H](O)[C@H](C)[C@@H](O)CCO)OC(=O)[C@H](C)N(C)C)[C@H](C)/C=C/N(C)C=O | > 10
